Results as given in patent US20200108115A1, “MEDICINAL COMPOSITION DERIVED FROM MULTIPLE PLANT SOURCES FOR GASTROINTESTINAL DISORDER” (priority 2017, published 2020).
≈ marks a conversion by molar mass, not a printed value.

Columns and labels:
Assay in all cases: MIC by resazurin micro-titre method
Assay type in all cases: cell-based
[1] = test system: Streptococcus thermophilus (BB2); settings: beneficial, 37° C., 18-24 h
Klebsiella oxytoca (P4) = settings: 37° C., 18-24 h
[2] = test system: Bacteroides fragilis (BB3); settings: beneficial, 37° C., 18-24 h
[3] = test system: Faecalibacterium prausnitzii (BB5); settings: beneficial, 37° C., 18-24 h
Helicobacter pylori (P6) = settings: read-out: MIC value
[4] = test system: Salmonella typhimurium (P3); settings: Salmonella enterica, 37° C., 18-24 h
Vibrio cholera (P5) = settings: Vibrio cholerae, read-out: MIC value
[5] = test system: Shigella dysenteriae (P7); settings: read-out: MIC value

O=C(O)c1cn(C2CC2)c2cc(N3CCNCC3)c(F)cc2c1=O [Ciprofloxacin, ciprofloxacin]
MIC [1]: 31.2 µg/mL (≈ 94.3 µM)
MIC (Klebsiella oxytoca (P4)): 500 µg/mL (≈ 1510 µM)
MIC [2]: 62.5 µg/mL (≈ 189 µM)
MIC [3]: 31.2 µg/mL (≈ 94.3 µM)
MIC (Helicobacter pylori (P6)): 15.1 µg/mL (≈ 45.6 µM)
MIC [4]: 1000 µg/mL (≈ 3020 µM)
MIC (Vibrio cholera (P5)): 125 µg/mL (≈ 377 µM)
MIC [5]: 15.1 µg/mL (≈ 45.6 µM)
